Test results: paper PMC4297543 (Bioorganic & medicinal chemistry letters, 2014)

Target: recombinant β-secretase (Homo sapiens, UniProt P56817)
Experiment: β-secretase
Format: biochemical

Chain of recombinant β-secretase (P56817 46-501): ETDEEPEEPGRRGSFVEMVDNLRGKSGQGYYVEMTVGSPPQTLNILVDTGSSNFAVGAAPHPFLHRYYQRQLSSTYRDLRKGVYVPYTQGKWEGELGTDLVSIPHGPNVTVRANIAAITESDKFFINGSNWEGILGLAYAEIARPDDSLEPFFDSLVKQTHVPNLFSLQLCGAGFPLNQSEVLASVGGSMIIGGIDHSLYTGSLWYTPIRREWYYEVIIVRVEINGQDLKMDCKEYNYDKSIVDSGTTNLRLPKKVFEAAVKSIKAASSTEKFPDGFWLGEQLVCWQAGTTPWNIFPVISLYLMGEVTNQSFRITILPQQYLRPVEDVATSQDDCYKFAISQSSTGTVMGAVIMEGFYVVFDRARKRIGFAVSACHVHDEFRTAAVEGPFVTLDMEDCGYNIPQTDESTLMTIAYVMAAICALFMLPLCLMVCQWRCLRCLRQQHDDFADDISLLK

Row | Compound | drop in potency with respect to 3a (ratio of BACE1 Ki to that of 3a) [fold] | improvement over inhibitor 4a (ratio of BACE1 potency to that of 4a)
1 | Cc1cc(C)n(C[C@@H](C)C(=O)N[C@@H](CNC(=O)OC(C)(C)C)C(=O)N[C@@H](CC(C)C)[C@@H](O)C[C@@H](C)C(=O)N[C@H](C(=O)NCC(C)C)C(C)C)n1 [Inhibitor 3b] | ~40 | –
2 | Cc1csc(C[C@H](C)C(=O)N[C@@H](CNC(=O)OC(C)(C)C)C(=O)N[C@@H](CC(C)C)[C@@H](O)C[C@@H](C)C(=O)N[C@H](C(=O)NCC(C)C)C(C)C)n1 [Inhibitor 4c] | – | over 120 fold
